From publication PMC9574860, “Chemical Toolkit for PARK7: Potent, Selective, and High-Throughput” (Journal of Medicinal Chemistry, 2022)

Columns and labels:
UCHL1 [1] = molecular target: T1, UCHL1 (Homo sapiens, UniProt P09936); test: UCHL1 activity assay (Ub-Rho-Morpholine or Ub-AMC substrate); type: biochemical; details: UCHL1 1 nM, 1 h preincubation; Figure 3E; read-out: UCHL1 IC50
T1 sequence (P09936 1-223): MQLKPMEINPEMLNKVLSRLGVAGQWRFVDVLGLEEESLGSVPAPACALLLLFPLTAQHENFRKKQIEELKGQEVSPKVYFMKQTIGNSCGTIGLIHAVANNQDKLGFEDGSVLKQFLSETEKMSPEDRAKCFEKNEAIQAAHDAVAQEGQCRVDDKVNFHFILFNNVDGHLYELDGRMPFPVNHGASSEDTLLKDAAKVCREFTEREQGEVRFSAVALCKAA
Experimental: The assay was performed in a buffer containing 50 mM Tris·HCl, 100 mM NaCl at pH 7.5, 2.0 mM cysteine, 1 mg/mL 3-[(3-cholamidopropyl)dimethylammonio]propanesulfonic acid (CHAPS), and 0.5 mg/mL bovine serum albumin and conducted in a 384-well plate (Corning 3820) with a reaction volume 20 μL in triplicate. The compounds were dissolved in DMSO as 10, 1, and 0.1 mM stock solutions and were transferred to obtain a 12-point serial dilution of 0.05 to 200 μM. Next, UCHL1 (15 μL, final concentration of 1 nM) was dispensed with a Biotek MultiFlowFX liquid dispenser and incubated for 1 h, followed by dispensing the substrate Ub-Rho-Morpholine or Ub-AMC (5 μL, final concentration of 400 nM). The FI signal was monitored with a BMG Labtech PHERAstar plate reader (λex/em 487/535 nm or λex/em 350/450 nm) for 1 h. N-Ethylmaleimide (NEM, 10 mM) was used as a positive control (100% inhibition), and DMSO was used as a negative control (0% inhibition). All samples were normalized to the positive and negative controls and plotted against the inhibitor concentrations (in μM) using the built-in equation “[inhibitor] vs response – variable slope (four parameters), least-squares fit” with constraints “Bottom = 0” and “Top = 100” in GraphPad Prism 9.0.1 software to obtain the IC50 values.

UCHL1 [2] = molecular target: T1, UCHL1; test: Gel-based competition assay with probe 8RK59, UCHL1 band; type: biochemical; details: compound 2 μM, 1 h; PARK7 and UCHL1 1 μM each; then 8RK59 2 μM 30 min; Figure 3B
Experimental: To assess the inhibitory potency and selectivity of these compounds toward PARK7 and UCHL1, we performed a gel-based competition assay (Figure 3A).[36] A mixture of equal amounts of PARK7 and UCHL1 (1 μM) was treated with each of the synthesized compounds (2 μM) for 1 h, followed by incubation with fluorescent probe 8RK59 (2 μM) for 30 min. Samples were resolved by SDS-PAGE, and the gel was scanned for fluorescence. Inhibition of PARK7 or UCHL1 is reflected by the disappearance of their corresponding bands (Figure 3B). […] The inhibition potential of JYQ-88 against PARK7 was assessed in a similar assay where PARK7 was incubated with a serial dilution of JYQ-88 before treatment with probe 8RK59 (Figure 3C). A clear inhibition is visible at 0.5 μM, and full inhibition is achieved between 1 and 2 μM. […] The selectivity of JYQ-88 between UCHL1 and PARK7 was further confirmed in a direct competition assay between equal amounts of PARK7 and UCHL1 (Figure 3F). PARK7 inhibition was observed starting from 0.5 μM JYQ-88, whereas inhibition of UCHL1 was only detected at 20 μM. Since JYQ-88 and 8RK64 are enantiomers, we assumed that the interactions with PARK7 should be similar. To investigate how the chiral center influences the selectivity, we solved the crystal structure of the PARK7−JYQ-88 complex with 1.42 Å resolution (Figure 3G, Table S1, PDB 7PA3). The global positioning of the inhibitor in between the two α-helices was similar to that for 8RK64. […] This way, the thiazolo-pyridine part of JYQ-88 is bound in a similar manner as 8RK64 and the earlier observed interactions are largely the same. The formation of the isothiourea moiety, stabilized by the interaction with Glu18, and the interaction between the thiazole amine and the amide NH2 of the Asn76 side chain are still present. However, the interaction between the azidoacetyl carbonyl with the Leu128 backbone carbonyl can no longer be observed due to the rotation of the azidoacetyl moiety. The Lys132 residue also seems to have rotated (compared to Figure 2C).
The assay was performed in Tris buffer as described above.

DUBs = test: DUB activity profiling in HEK293T cell lysate with general DUB probe Rho-Ub-PA; type: biochemical; details: compound 5 μM 1 h 37 °C, then Rho-Ub-PA 30 min, Figure S5
Experimental: Due to the structural similarity of PARK7 inhibitor JYQ-88 and UCHL1 inhibitor 8RK64 and the fact that many cyanimide-containing compounds have been identified as DUB inhibitors,[35],[37] we investigated the inhibitory potential of JYQ-88 and JYQ-92 toward DUBs. After treating the HEK293T cell lysate with JYQ-88 and JYQ-92, along with UCHL1 inhibitors, 6RK73 and 8RK64 as controls,[38] the remaining activity of DUBs was determined using the general DUB probe Rho-Ub-PA (Figure S5).[39]
Figure S5. Fluorescence labeling of DUBs to investigate their remaining activity by Rh-Ub-
PA after the treatment with PARK7 inhibitor JYQ-88 and probe JYQ-92. UCHL1 inhibitors,
6RK73 and 8RK64, were used as a control. HEK293T cell lysate was treated with 5 μM final
MOPS SDS running buffer (Novex, NuPAGE) and visualized by fluorescence scanning on a
Typhoon FLA 9500 (GE Healthcare Life Sciences) using a Rhodamine channel (λex/em
(1 picture or pasted object on this page, not shown here)

PARK7 and UCHL1 = test: Labeling of a mixture of purified recombinant UCHL1 and PARK7 with probe 8RK59 (SDS-PAGE, fluorescence scanning); type: binding; details: UCHL1 and PARK7 1 μM each, probe 2 μM, 30 min 37 °C
Experimental: To determine the labeling efficiency of 8RK59 for both UCHL1 and PARK7, a mixture of equal amounts of purified recombinant UCHL1 and PARK7 (1 μM each) is labeled with 8RK59 (2 μM). […] To gain more insight into the inhibitor binding mode and to guide the design of novel PARK7 inhibitors, the crystal structure of the PARK7–8RK64 complex was solved with 1.21 Å resolution (Figure 2C, Table S1, PDB 7PA2). The structure is obtained as a monomer and compared to its apo structure (PDB 1J42). […] Globally, the inhibitor fits into a groove between two α-helices formed by residues 76–84 and 126–134 (Figure 2C, left panel). The covalent bond between 8RK64 and PARK7 is clearly visible (Figure 2C, middle panel). The cyanimide moiety of the inhibitor reacted to active site Cys106, thereby forming an isothiourea linkage, which is similar to what has been observed for the reaction of cyanamide-based and azanitrile inhibitors with cathepsins.[33],[34] The isothiourea moiety is stabilized by an H-bond between the NH and the carboxylate side chain of the nearby Glu18. Another interaction is found between the thiazole ring amine in the inhibitor and the amide NH2 of the Asn76 side chain. Hydrogen bonding between the carbonyl of the azidoacetyl moiety and the Leu128 backbone carbonyl via a water molecule is also observed. […]

PARK7 [3] = molecular target: T2, PARK7 (Homo sapiens, UniProt Q99497); test: DiFMUAc PARK7 activity assay; type: biochemical; parameters: GST (N, cleaved yes); made in house; host or cells: E. coli BL21(DE3) Rosetta2; details: PARK7 0.1 μM, 2 h preincubation, DiFMUAc 300 μM; for inhibition at 12.5 µM: 12.5 µM compound, read-out: DiFMuAc assay %Inhibiton (12.5 µM); for inhibition at 37.5 µM: 37.5 µM compound, read-out: DiFMuAc assay %Inhibiton (37.5 µM); for inhibition at 100 µM: 100 µM compound, read-out: DiFMuAc assay %Inhibiton (100 µM)
T2 sequence (Q99497 1-189): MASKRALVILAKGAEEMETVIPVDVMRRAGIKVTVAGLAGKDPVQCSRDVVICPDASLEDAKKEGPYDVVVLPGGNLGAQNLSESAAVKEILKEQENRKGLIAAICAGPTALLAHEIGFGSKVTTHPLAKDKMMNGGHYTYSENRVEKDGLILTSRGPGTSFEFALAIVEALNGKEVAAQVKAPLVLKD
Experimental: Compounds were transferred using a Labcyte Echo550 acoustic dispenser to obtain a 12-point serial dilution of 0.001 to 100 μM. Next, PARK7 (15 μL, final concentration of 0.1 μM) was dispensed with a Biotek MultiFlowFX liquid dispenser and incubated for 1 h, followed by dispensing the substrate DiFMUAc (5 μL, final concentration of 300 μM). The fluorescence intensity (FI) signal was monitored with a BMG Labtech PHERAstar plate reader (λex/em 350/450 nm) for 1 h.
The validation was performed in the PBS buffer with a reaction volume of 20 μL per well in triplicate. […] Next, PARK7 (15 μL, final concentration 0.1 μM) was dispensed with a Biotek MultiFlowFX liquid dispenser and incubated for 2 h, followed by dispensing the substrate DiFMUAc (5 μL, final concentration 300 μM). The FI signal was monitored with a BMG Labtech PHERAstar plate reader (λex/em 350/450 nm) for 1 h. The increase of FI signal compared with reference controls was used to calculate the remaining enzyme activity. The inhibition percentage of these 22 compounds was plotted as a heatmap using GraphPad Prism 9.0.1 software. Color gradients indicate inhibition percentage, no inhibiton (white) and full inhibition (blue).

PARK7 [4] = molecular target: T2, PARK7; test: FP assay with Rhodamine110 probe JYQ-107 (IC50 and hit validation); type: binding; parameters: GST (N, cleaved yes); made in house; host or cells: E. coli BL21(DE3) Rosetta2; details: PARK7 0.2 μM, 1 h preincubation, JYQ-107 20 nM; for inhibition at 12.5 µM: 12.5 µM compound, read-out: FP assay %Inhibiton (12.5 µM); for inhibition at 37.5 µM: 37.5 µM compound, read-out: FP assay %Inhibiton (37.5 µM); for inhibition at 100 µM: 100 µM compound, read-out: FP assay %Inhibiton (100 µM)
PARK7 [5] = molecular target: T2, PARK7; test: Gel-based competition assay in HEK293T cell lysate with probe JYQ-92; type: biochemical; parameters: GST (N, cleaved yes); made in house; host or cells: E. coli BL21(DE3) Rosetta2; details: fragment 0.1–50 μM 2 h 37 °C, then JYQ-92 1 μM 30 min, Figure 6E
Description: We next assessed whether we could measure the inhibitory activity of an inhibitor against PARK7 in a cell lysate using JYQ-92 to label the remaining activity of PARK7. […] The disappearance of the labeling band is a measure for inhibition.

N#CN1CC[C@H](C(=O)Nc2nc3c(s2)CN(C(=O)CN=[N+]=[N-])CC3)C1 [8RK64, reference compound]
IC50 (UCHL1 [1]): 230 nM
Inhibition of UCHL1 (disappearance of 8RK59-labeled band) (UCHL1 [2]): fully inhibit
Effect on remaining DUB activity (Rho-Ub-PA labeled bands) (DUBs): disappearance of the UCHL1 band

CC1=CC(C)=[N+]2C1=C(CCCCc1cn(CC(=O)N3CCc4nc(NC(=O)[C@H]5CCN(C#N)C5)sc4C3)nn1)c1c(C)cc(C)n1[B-]2(F)F [8RK59]
Labeling of PARK7 and UCHL1 by probe (PARK7 and UCHL1): nearly equal extent

O=C(O)c1csc(C(=O)CCl)c1 [Z763366298]
inhibition at 12.5 µM (PARK7 [3]): 97.9%
inhibition at 37.5 µM (PARK7 [3]): 97.6%
inhibition at 100 µM (PARK7 [3]): 97.3%
inhibition at 12.5 µM (PARK7 [4]): 100%
inhibition at 37.5 µM (PARK7 [4]): 100%
inhibition at 100 µM (PARK7 [4]): 100%
Ability to inhibit PARK7 in a cell lysate (PARK7 [5]): confirmed

N#CN1CC[C@H](C(=O)Nc2ncc(N3CCOCC3)s2)C1 [6RK73, reference compound]
Effect on remaining DUB activity (Rho-Ub-PA labeled bands) (DUBs): disappearance of the UCHL1 band

CCC(C)c1ccc(NC(=O)CCl)cc1 (stereo not shown) [Z56886389]
inhibition at 12.5 µM (PARK7 [3]): 95.8%
inhibition at 37.5 µM (PARK7 [3]): 95.2%
inhibition at 100 µM (PARK7 [3]): 97.1%
inhibition at 12.5 µM (PARK7 [4]): 100%
inhibition at 37.5 µM (PARK7 [4]): 100%
inhibition at 100 µM (PARK7 [4]): 100%
Ability to inhibit PARK7 in a cell lysate (PARK7 [5]): confirmed
